Target: T1, cathepsin K (Homo sapiens, UniProt P43235)
T1 sequence (P43235 115-329): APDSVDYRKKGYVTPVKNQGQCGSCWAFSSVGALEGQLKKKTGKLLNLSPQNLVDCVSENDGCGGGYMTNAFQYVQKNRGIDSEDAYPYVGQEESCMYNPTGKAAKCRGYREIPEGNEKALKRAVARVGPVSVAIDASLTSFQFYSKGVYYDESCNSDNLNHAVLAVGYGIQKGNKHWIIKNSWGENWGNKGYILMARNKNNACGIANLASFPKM
Test: Cathepsin K inhibition studies (progress curve method, fluorogenic peptide substrate)
Format: biochemical
Conditions: human recombinant enzyme; substrate typically Cbz-Phe-Arg-AMC; 100 mM Na acetate pH 5.5, 20 mM cysteine, 5 mM EDTA, 10% DMSO
Procedure: Determination of Cathepsin K Proteolytic Catalytic Activity
All assays for cathepsin K were carried out with human recombinant enzyme. Standard assay conditions for the determination of kinetic constants used a fluorogenic peptide substrate, typically Cbz-Phe-Arg-AMC, and were determined in 100 mM Na acetate at pH 5.5 containing 20 mM cysteine and 5 mM EDTA. Stock substrate solutions were prepared at concentrations of 10 or 20 mM in DMSO with 20 uM final substrate concentration in the assays. All assays contained 10% DMSO. […] All assays were conducted at ambient temperature. Product fluorescence (excitation at 360 nm; emission at 460 nm) was monitored with a Perceptive Biosystems Cytofluor II fluorescent plate reader. […]
Potential inhibitors were evaluated using the progress curve method. […] For those compounds whose progress curves were linear, apparent inhibition constants (Ki,app) were calculated according to equation 1 (Brandt et al., Biochemitsry, 1989, 28, 140): […]
[AMC]=vsst+(v0−vss)[1−exp(−kobst)]/kobs (2) where [AMC] is the concentration of product formed over time t, v0 is the initial reaction velocity and vss is the final steady state rate. Values for kobs were then analyzed as a linear function of inhibitor concentration to generate an apparent second order rate constant (kobs/inhibitor concentration or kobs/[I]) describing the time-dependent inhibition. […]

CC(C)C[C@H](NS(=O)(=O)c1cccc2cccnc12)C(=O)NC1COCC1=O (stereo partly drawn) [4-(R,S)-Amino-N-[(8-quinolinesulfonyl)-S-leucine]-3-tetrahydrofuran-3-one]
Ki: > 10 µM

Reference: patent US6369077B1, “Protease inhibitors” (SmithKline Beecham Corporation, priority 1997, dated 2002)
